Test: Stability in mouse plasma
Assay type: in vitro ADME
Details: mouse plasma; 1 h, 37° C.

Compound | % Remaining [%]
CCNC(=O)c1nnc(-c2cc(C(C)C)c(O)cc2O)n1-c1ccc(Oc2ccc(C(=O)N3CCC(OC(=O)OC4(CC)C(=O)OCc5c4cc4n(c5=O)Cc5c-4nc4ccc(O)cc4c5CC)CC3)cc2)cc1 (stereo not drawn) [SDC-TRAP-0203, 4,11-Diethyl-9-hydroxy-3,14-dioxo-3,4,12,14-tetrahydro-1H-pyrano[3′,4′:6,7]indolizino[1,2-b]quinolin-4-yl (1-(4-(4-(3-(2,4-dihydroxy-5-isopropylphenyl)-5-(ethylcarbamoyl)-4H-1,2,4-triazol-4-yl)phenoxy)benzoyl)piperidin-4-yl) carbonate] | 71.2
CCNC(=O)c1nnc(-c2cc(C(C)C)c(O)cc2O)n1-c1ccc(OC2CCN(C(=O)C3CCCCN3C(=O)Oc3ccc4nc5c(c(CC)c4c3)Cn3c-5cc4c(c3=O)COC(=O)[C@]4(O)CC)CC2)cc1 (stereo partly drawn) [SDC-TRAP-0216, (S)-4,11-diethyl-4-hydroxy-3,14-dioxo-3,4,12,14-tetrahydro-1H-pyrano[3′,4′:6,7]indolizino[1,2-b]quinolin-9-yl 2-(4-(4-(3-(2,4-dihydroxy-5-isopropylphenyl)-5-(ethylcarbamoyl)-4H-1,2,4-triazol-4-yl)phenoxy)piperidine-1-carbonyl)piperidine-1-carboxylate] | 67.7
CCNC(=O)c1nnc(-c2cc(C(C)C)c(O)cc2O)n1-c1ccc(OC2CCN(C(=O)[C@@H]3CCCN3C(=O)Oc3ccc4nc5c(c(CC)c4c3)Cn3c-5cc4c(c3=O)COC(=O)[C@]4(O)CC)CC2)cc1 [SDC-TRAP-0209] | 67.1
CCc1c2c(nc3ccc(O)cc13)-c1cc3c(c(=O)n1C2)COC(=O)C3(CC)OC(=O)CN1CCC(Cc2ccc(-n3c(O)nnc3-c3cc(C(C)C)c(O)cc3O)cc2)CC1 (stereo not drawn) [SDC-TRAP-0071, 4,11-diethyl-9-hydroxy-3,14-dioxo-3,4,12,14-tetrahydro-1H-pyrano[3′,4′:6,7]indolizino[1,2-b]quinolin-4-yl 2-(4-(4-(3-(2,4-dihydroxy-5-isopropylphenyl)-5-hydroxy-4H-1,2,4-triazol-4-yl)benzyl)piperidin-1-yl)acetate] | 102
CCc1c2c(nc3ccc(OC(=O)N(C)CCn4ccc5cc(-n6c(O)nnc6-c6cc(C(C)C)c(O)cc6O)ccc54)cc13)-c1cc3c(c(=O)n1C2)COC(=O)C3(O)CC (stereo not drawn) [SDC-TRAP-0022, 4,11-diethyl-4-hydroxy-3,14-dioxo-3,4,12,14-tetrahydro-1H-pyrano[3′,4′:6,7]indolizino[1,2-b]quinolin-9-yl (2-(5-(3-(2,4-dihydroxy-5-isopropylphenyl)-5-hydroxy-4H-1,2,4-triazol-4-yl)-1H-indol-1-yl)ethyl)(methyl)carbamate] | 21
CCNC(=O)c1nnc(-c2cc(C(C)C)c(O)cc2O)n1-c1ccc(Oc2ccc(C(=O)N3CCC(N(C)C(=O)Oc4ccc5nc6c(c(CC)c5c4)Cn4c-6cc5c(c4=O)COC(=O)C5(O)CC)CC3)cc2)cc1 (stereo not drawn) [SDC-TRAP-0180, 4,11-Diethyl-4-hydroxy-3,14-dioxo-3,4,12,14-tetrahydro-1H-pyrano[3′,4′:6,7]indolizino[1,2-b]quinolin-9-yl (1-(4-(4-(3-(2,4-dihydroxy-5-isopropylphenyl)-5-(ethylcarbamoyl)-4H-1,2,4-triazol-4-yl)phenoxy)benzoyl)piperidin-4-yl)(methyl)carbamate] | 72.4
CCc1c2c(nc3ccc(OC(=O)N4CCN(Cc5ccc(-n6c(O)nnc6-c6cc(C(C)C)c(O)cc6O)cc5)CC4C)cc13)-c1cc3c(c(=O)n1C2)COC(=O)C3(O)CC (stereo not drawn) [SDC-TRAP-0220, 4,11-diethyl-4-hydroxy-3,14-dioxo-3,4,12,14-tetrahydro-1H-pyrano[3′,4′:6,7]indolizino[1,2-b]quinolin-9-yl 4-(4-(3-(2,4-dihydroxy-5-isopropylphenyl)-5-hydroxy-4H-1,2,4-triazol-4-yl)benzyl)-2-methylpiperazine-1-carboxylate] | 78.3
CCNC(=O)c1nnc(-c2cc(C(C)C)c(O)cc2O)n1-c1ccc(OC2CCN(C(=O)C3CCN(C(=O)Oc4ccc5nc6c(c(CC)c5c4)Cn4c-6cc5c(c4=O)COC(=O)[C@]5(O)CC)C(C)C3)CC2)cc1 (stereo partly drawn) [SDC-TRAP-0213, (S)-4,11-diethyl-4-hydroxy-3,14-dioxo-3,4,12,14-tetrahydro-1H-pyrano[3′,4′:6,7]indolizino[1,2-b]quinolin-9-yl 4-(4-(4-(3-(2,4-dihydroxy-5-isopropylphenyl)-5-(ethylcarbamoyl)-4H-1,2,4-triazol-4-yl)phenoxy)piperidine-1-carbonyl)-2-methylpiperidine-1-carboxylate] | 74.7
CCNC(=O)c1nnc(-c2cc(C(C)C)c(O)cc2O)n1-c1ccc(OC2CCN(C(=O)CN(C)C(=O)Oc3ccc4nc5c(c(CC)c4c3)Cn3c-5cc4c(c3=O)COC(=O)[C@]4(O)CC)CC2)cc1 [SDC-TRAP-0206, (S)-4,11-diethyl-4-hydroxy-3,14-dioxo-3,4,12,14-tetrahydro-1H-pyrano[3′,4′:6,7]indolizino[1,2-b]quinolin-9-yl(2-(4-(4-(3-(2,4-dihydroxy-5-isopropylphenyl)-5-(ethylcarbamoyl)-4H-1,2,4-triazol-4-yl)phenoxy)piperidin-1-yl)-2-oxoethyl)(methyl)carbamate] | 68.6
CCc1c2c(nc3ccc(O)cc13)-c1cc3c(c(=O)n1C2)COC(=O)C3(CC)OC(=O)CN1CCN(c2ccc(-n3c(O)nnc3-c3cc(C(C)C)c(O)cc3O)cc2)CC1 (stereo not drawn) [SDC-TRAP-0056, 4,11-diethyl-9-hydroxy-3,14-dioxo-3,4,12,14-tetrahydro-1H-pyrano[3′,4′: 6,7]indolizino[1,2-b]quinolin-4-yl 2-(4-(4-(3-(2,4-dihydroxy-5-isopropylphenyl)-5-hydroxy-4H-1,2,4-triazol-4-yl)phenyl)piperazin-1-yl)acetate] | 78
CCNC(=O)c1nnc(-c2cc(C(C)C)c(O)cc2O)n1-c1ccc(Oc2ccc(N(C)C(=O)Oc3ccc4nc5c(c(CC)c4c3)Cn3c-5cc4c(c3=O)COC(=O)[C@]4(O)CC)cc2)cc1 [SDC-TRAP-0145, (S)-4,11-diethyl-4-hydroxy-3,14-dioxo-3,4,12,14-tetrahydro-1H-pyrano[3′,4′:6,7]indolizino[1,2-b]quinolin-9-yl (4-(4-(3-(2,4-dihydroxy-5-isopropylphenyl)-5-(ethylcarbamoyl)-4H-1,2,4-triazol-4-yl)phenoxy)phenyl)(methyl)carbamate] | 14.1
CCc1c2c(nc3ccc(O)cc13)-c1cc3c(c(=O)n1C2)COC(=O)C3(CC)OC(=O)CCC(=O)N1CCC(Cc2ccc(-n3c(O)nnc3-c3cc(C(C)C)c(O)cc3O)cc2)CC1 (stereo not drawn) [SDC-TRAP-0042, 4,11-diethyl-9-hydroxy-3,14-dioxo-3,4,12,14-tetrahydro-1H-pyrano[3′,4′:6,7]indolizino[1,2-b]quinolin-4-yl 4-(4-(4-(3-(2,4-dihydroxy-5-isopropylphenyl)-5-hydroxy-4H-1,2,4-triazol-4-yl)benzyl)piperidin-1-yl)-4-oxobutanoate] | 74
CCc1c2c(nc3ccc(O)cc13)-c1cc3c(c(=O)n1C2)COC(=O)C3(CC)OC(=O)N(C)CCOCCn1ccc2cc(-n3c(O)nnc3-c3cc(C(C)C)c(O)cc3O)ccc21 (stereo not drawn) [SDC-TRAP-0037, 4,11-diethyl-9-hydroxy-3,14-dioxo-3,4,12,14-tetrahydro-1H-pyrano[3′,4′:6,7]indolizino[1,2-b]quinolin-4-yl (2-(2-(5-(3-(2,4-dihydroxy-5-isopropylphenyl)-5-hydroxy-4H-1,2,4-triazol-4-yl)-1H-indol-1-yl)ethoxy)ethyl)(methyl)carbamate] | 95

Same assay, conditions: mouse, plasma, 1 h, 10 μM

% Remaining [%] | Compound
93.0 | CCNC(=O)c1nnc(-c2cc(C(C)C)c(O)cc2O)n1-c1ccc(CN2CCC(C(=O)N[C@H](C(=O)Nc3cccc4c3CN(C3CCC(=O)NC3=O)C4=O)C(C)C)CC2)cc1 (stereo partly drawn) [SDC-TRAP-0163, 1-(4-(3-(2,4-dihydroxy-5-isopropylphenyl)-5-(ethylcarbamoyl)-4H-1,2,4-triazol-4-yl)benzyl)-N-((2S)-1-((2-(2,6-dioxopiperidin-3-yl)-1-oxoisoindolin-4-yl)amino)-3-methyl-1-oxobutan-2-yl)piperidine-4-carboxamide]
81.4 | CC(C)c1cc(-c2nnc(O)n2-c2ccc(CN3CCN(C(=O)c4ccc(COC(=O)Nc5cccc6c5CN(C5CCC(=O)NC5=O)C6=O)cc4)CC3)c(F)c2)c(O)cc1O (stereo not drawn) [SDC-TRAP-0157, 4-(4-(4-(3-(2,4-dihydroxy-5-isopropylphenyl)-5-hydroxy-4H-1,2,4-triazol-4-yl)-2-fluorobenzyl)piperazine-1-carbonyl)benzyl (2-(2,6-dioxopiperidin-3-yl)-1-oxoisoindolin-4-yl)carbamate]
98.3 | CCNC(=O)c1nnc(-c2cc(C(C)C)c(O)cc2O)n1-c1ccc(CN2CCC(C(=O)N(C)CCCOC(=O)Nc3cccc4c3CN(C3CCC(=O)NC3=O)C4=O)CC2)cc1 (stereo not drawn) [SDC-TRAP-0231, 3-(1-(4-(3-(2,4-dihydroxy-5-isopropylphenyl)-5-(ethylcarbamoyl)-4H-1,2,4-triazol-4-yl)benzyl)-N-methylpiperidine-4-carboxamido)propyl (2-(2,6-dioxopiperidin-3-yl)-1-oxoisoindolin-4-yl)carbamate]
89.1 | CC(C)c1cc(-c2nnc(O)n2-c2ccc(CN3CCN(C(=O)COC(=O)Nc4cccc5c4CN(C4CCC(=O)NC4=O)C5=O)CC3)cc2)c(O)cc1O (stereo not drawn) [SDC-TRAP-0121, 2-(4-(4-(3-(2,4-dihydroxy-5-isopropylphenyl)-5-hydroxy-4H-1,2,4-triazol-4-yl)benzyl)piperazin-1-yl)-2-oxoethyl(2-(2,6-dioxopiperidin-3-yl)-1-oxoisoindolin-4-yl)carbamate]

Compound | % Remaining [%]
CC(C)c1cc(-c2nnc(O)n2-c2ccc(CN3CCN(C(=O)Oc4ccc(COC(=O)Nc5cccc6c5CN(C5CCC(=O)NC5=O)C6=O)cc4)CC3)c(F)c2)c(O)cc1O (stereo not drawn) [SDC-TRAP-0171, 4-((((2-(2,6-dioxopiperidin-3-yl)-1-oxoisoindolin-4-yl)carbamoyl)oxy)methyl)phenyl-4-(4-(3-(2,4-dihydroxy-5-isopropylphenyl)-5-hydroxy-4H-1,2,4-triazol-4-yl)-2-fluorobenzyl)piperazine-1-carboxylate] | 17.7
